Source: ChEMBL document CHEMBL5512603, “Development of de-novo coronavirus 3-chymotrypsin-like protease (3CLpro) inhibitors since COVID-19 outbreak: A strategy to tackle challenges of persistent virus infection” (Eur J Med Chem, 2024)

Key:
[1] = molecular target: T1, Replicase polyprotein 1ab (Severe acute respiratory syndrome coronavirus 2, UniProt P0DTD1); assay: Inhibition of 2019-nCoV-2 3CLp using fluorescent substrate by FRET assay
[2] = Cytotoxicity against African green monkey Vero E6 cells; assay type: toxicity, cell-based, Vero C1008; conditions: chlorocebus sabaeus
[3] = molecular target: T1, Replicase polyprotein 1ab; assay: Inhibition of SARS-CoV-2 3CLp by mass spectrometry
[4] = molecular target: Protein cereblon/Replicase polyprotein 1ab (Severe acute respiratory syndrome coronavirus 2, UniProt P0DTD1+Q96SW2); assay: PROTAC activity at SARS-CoV-2 Main protease/CRBN E3 ligase (unknown origin)
[5] = molecular target: T1, Replicase polyprotein 1ab; assay: Inhibition of SARS-CoV-2 3CLp
[6] = molecular target: T1, Replicase polyprotein 1ab; assay: Inhibition of SARS-CoV-2 3CLp using fluorescent substrate by FRET assay
[7] = molecular target: T1, Replicase polyprotein 1ab; assay: Inhibition of SARS-CoV-2 recombinant main protease; assay type: single protein

Protein cereblon/Replicase polyprotein 1ab, sequence (Q96SW2 whole entry, other chains not shown): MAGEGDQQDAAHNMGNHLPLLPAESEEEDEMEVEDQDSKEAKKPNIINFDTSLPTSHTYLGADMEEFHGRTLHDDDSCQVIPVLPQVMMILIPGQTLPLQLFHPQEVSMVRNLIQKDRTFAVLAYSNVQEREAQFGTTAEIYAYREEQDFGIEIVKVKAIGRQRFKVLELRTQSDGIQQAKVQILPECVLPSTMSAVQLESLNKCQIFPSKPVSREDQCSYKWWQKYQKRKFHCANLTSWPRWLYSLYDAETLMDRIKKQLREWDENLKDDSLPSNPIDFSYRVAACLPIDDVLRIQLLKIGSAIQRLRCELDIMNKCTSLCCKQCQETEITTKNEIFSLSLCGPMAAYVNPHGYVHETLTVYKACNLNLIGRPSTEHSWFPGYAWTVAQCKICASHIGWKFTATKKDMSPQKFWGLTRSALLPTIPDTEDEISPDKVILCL

## CC(C)(C)NC(=O)[C@@H](c1cccnc1)N(C(=O)c1c[nH]cn1)c1ccc(C(C)(C)C)cc1
[1]
  IC50: 960 nM
[2]
  CC50: 129000 nM

## Cc1cncc(-n2c(=O)nc(Nc3cc4cn(C)nc4cc3Cl)n(Cc3cc(C#N)c(F)cc3C)c2=O)c1
[3]
  IC50: 35 nM

## C[C@H](NC(=O)[C@@H](c1cccnc1)N(C(=O)c1ccco1)c1ccc(-c2ccccc2)cc1)c1ccccc1
[1]
  IC50: 660 nM
[2]
  CC50: > 200000 nM

## Cn1cc2cc(/N=c3\[nH]c(=O)n(Cc4cn(CCCCC(=O)Nc5cccc6c5C(=O)N(C5CCC(=O)NC5=O)C6)nn4)c(=O)n3Cc3cc(F)c(F)cc3F)c(Cl)cc2n1 (stereo unspecified)
[4]
  EC50: < 100 nM
[5]
  IC50: < 100 nM

## C[C@H](NC(=O)[C@@H](c1cccnc1)N(C(=O)CCl)c1ccc(-c2ccccc2)cc1)c1ccccc1
[6]
  IC50: 50 nM

## O=C(O)c1ccc(Nc2nc(=O)n(Cc3ccc[nH]c3=O)c(=O)n2Cc2cc(F)c(F)c(F)c2)cc1
[3]
  IC50: < 1000 nM

## COc1cc(Cl)cc(-c2cc(-c3c[nH]c(=O)[nH]c3=O)cn(-c3cccnc3)c2=O)c1
[7]
  IC50: 1000 nM

## Cn1cc2cc(/N=c3\[nH]c(=O)n(Cc4cn(CCOCC(=O)Nc5cccc6c5C(=O)N(C5CCC(=O)NC5=O)C6)nn4)c(=O)n3Cc3cc(F)c(F)cc3F)c(Cl)cc2n1 (stereo unspecified)
[4]
  EC50: < 100 nM
[5]
  IC50: > 100 nM

## O=c1[nH]cc(-c2cc(-c3cc(Cl)cc(COc4ccccc4)c3)c(=O)n(-c3cccnc3)c2)c(=O)[nH]1
[7]
  IC50: 128 nM

## O=c1[nH]cc(-c2cc(-c3cc(Cl)cc(COc4c(F)cccc4F)c3)c(=O)n(-c3cccnc3)c2)c(=O)[nH]1
[7]
  IC50: 36 nM

## Cn1cc2cc(/N=c3\[nH]c(=O)n(Cc4cn(CCCCCC(=O)Nc5cccc6c5C(=O)N(C5CCC(=O)NC5=O)C6)nn4)c(=O)n3Cc3cc(F)c(F)cc3F)c(Cl)cc2n1 (stereo unspecified)
[4]
  EC50: < 100 nM
[5]
  IC50: < 100 nM

## Cn1cc2cc(/N=c3\[nH]c(=O)n(Cc4cn(CCCCCCC(=O)Nc5cccc6c5C(=O)N(C5CCC(=O)NC5=O)C6)nn4)c(=O)n3Cc3cc(F)c(F)cc3F)c(Cl)cc2n1 (stereo unspecified)
[4]
  EC50: < 100 nM
[5]
  IC50: > 100 nM

## CC(C)COc1cc(Cl)cc(-c2cc(-c3c[nH]c(=O)[nH]c3=O)cn(-c3cccnc3)c2=O)c1
[7]
  IC50: 190 nM

## CCn1nnnc1Cn1c(=O)[nH]/c(=N\c2cc3cn(C)nc3cc2Cl)n(Cc2cc(F)c(F)cc2F)c1=O
[1]
  IC50: 160 nM

## Cn1cc2cc(/N=c3\[nH]c(=O)n(Cc4cn(CCOCCOCC(=O)Nc5cccc6c5C(=O)N(C5CCC(=O)NC5=O)C6=O)nn4)c(=O)n3Cc3cc(F)c(F)cc3F)c(Cl)cc2n1 (stereo unspecified)
[4]
  EC50: < 100 nM
[5]
  IC50: < 100 nM

## Cn1cc2cc(/N=c3\[nH]c(=O)n(Cc4cn(CCCC(=O)Nc5cccc6c5C(=O)N(C5CCC(=O)NC5=O)C6)nn4)c(=O)n3Cc3cc(F)c(F)cc3F)c(Cl)cc2n1 (stereo unspecified)
[4]
  EC50: < 100 nM
[5]
  IC50: > 100 nM

## O=c1[nH]cc(-c2cc(-c3cc(Cl)cc(OCCc4ccccc4)c3)c(=O)n(-c3cccnc3)c2)c(=O)[nH]1
[7]
  IC50: 37 nM

## Cn1cc2cc(/N=c3\[nH]c(=O)n(Cc4cn(CCCCCCC(=O)Nc5cccc6c5C(=O)N(C5CCC(=O)NC5=O)C6=O)nn4)c(=O)n3Cc3cc(F)c(F)cc3F)c(Cl)cc2n1 (stereo unspecified)
[4]
  EC50: > 100 nM
[5]
  IC50: < 100 nM

## CC(=O)NCCn1cc2cc(Nc3nc(=O)n(Cc4ccc[nH]c4=O)c(=O)n3Cc3cc(F)c(F)c(F)c3)c(Cl)cc2n1
[3]
  IC50: < 1000 nM

## Cn1cc2cc(/N=c3\[nH]c(=O)n(Cc4cn(CCOCCOCC(=O)Nc5cccc6c5C(=O)N(C5CCC(=O)NC5=O)C6)nn4)c(=O)n3Cc3cc(F)c(F)cc3F)c(Cl)cc2n1 (stereo unspecified)
[4]
  EC50: < 100 nM
[5]
  IC50: < 100 nM

## Cn1cnc(Cn2c(=O)cc(Nc3cc4cn(C)nc4cc3OC(F)(F)F)n(Cc3cc(F)c(F)cc3F)c2=O)n1
[3]
  IC50: 10 nM

## O=C1c2c(O)cc(O)c([Se][Se]c3c(O)cc(O)c4c3OC(c3cc(O)c(O)c(O)c3)C(O)C4=O)c2CC(c2cc(O)c(O)c(O)c2)C1O (stereo unspecified)
[6]
  IC50: 810 nM

## CC(C)(C)c1ccc(N(C(=O)c2ccco2)[C@@H](C(=O)NC2CCCC2)c2cccnc2)cc1
[1]
  IC50: 2510 nM
[2]
  CC50: 101000 nM

## CCn1nncc1Cn1c(=O)[nH]/c(=N\c2cc3cn(C)nc3cc2Cl)n(Cc2cc(F)c(F)cc2F)c1=O
[1]
  IC50: 123 nM

## Cn1cc2cc(/N=c3\[nH]c(=O)n(Cc4cn(CCOCCOCCOCC(=O)Nc5cccc6c5C(=O)N(C5CCC(=O)NC5=O)C6)nn4)c(=O)n3Cc3cc(F)c(F)cc3F)c(Cl)cc2n1 (stereo unspecified)
[4]
  EC50: < 100 nM
[5]
  IC50: > 100 nM

## O=c1[nH]cccc1Cn1c(=O)nc(Nc2cc3cn(C4CCOCC4)nc3cc2Cl)n(Cc2cc(F)c(F)c(F)c2)c1=O
[3]
  IC50: < 1000 nM

## Cn1cc2cc(/N=c3\[nH]c(=O)n(Cc4cn(CCCCC(=O)Nc5cccc6c5C(=O)N(C5CCC(=O)NC5=O)C6=O)nn4)c(=O)n3Cc3cc(F)c(F)cc3F)c(Cl)cc2n1 (stereo unspecified)
[4]
  EC50: < 100 nM
[5]
  IC50: < 100 nM

## Cc1cc(Cn2c(Nc3cc4cn(C)nc4cc3Cl)cc(=O)n(Cc3ncn(C)n3)c2=O)c(F)cc1F
[3]
  IC50: 12 nM

## CC(=O)Nc1nc2cc(Cl)c(Nc3nc(=O)n(Cc4ncn(C)n4)c(=O)n3Cc3cc(F)c(F)c(Cl)c3)cc2s1
[3]
  IC50: < 1000 nM

## CC(C)(C)c1ccc(N(C(=O)c2ccco2)[C@@H](C(=O)NC2CC2)c2cccnc2)cc1
[1]
  IC50: 3860 nM
[2]
  CC50: 52800 nM

## Cn1cc2cc(/N=c3\[nH]c(=O)n(Cc4cn(CCOCC(=O)Nc5cccc6c5C(=O)N(C5CCC(=O)NC5=O)C6=O)nn4)c(=O)n3Cc3cc(F)c(F)cc3F)c(Cl)cc2n1 (stereo unspecified)
[4]
  EC50: < 100 nM
[5]
  IC50: > 100 nM
